# Results published in EP0966963A1, “Use of indigoid bisindole derivatives as CDK1 inhibitors” (Eisenbrand, Gerhard, Prof. Dr., priority 1998, dated 1999).
# How the values were obtained:
# CDK4 = CDK4 (Homo sapiens, UniProt P11802); conditions: known chemical inhibitors, Meijer 1996; cited from earlier work
# PKA = conditions: known chemical inhibitors, Meijer 1996; cited from earlier work
# p34^cdc2/cyclin B = assay: p34cdc2/cyclin B kinase assay (histone H1 phosphorylation, [32P]ATP); format: biochemical, starfish (Marthasterias glacialis); conditions: 1 mg histone H1/ml, 15 µM ATP, 10 min at 30°C
# Experimental: J. Biochem., 243, (1997), 527-536). […] After 10 min. incubation at 30°C, 25 μl aliquots of supernatant were spotted onto 2.5 x 3 cm pieces of Whatman P81 phosphocellulose paper, and after 20 sec., the filters were washed five times (for at least 5 min. each time) in a solution of 10 ml phosphoric acid/liter of water. The wet filters were transferred into 6 ml plastic scintillation vials, 5 ml ACS (Amersham) scintillation fluid was added and the radioactivity measured in a Packard scintillation counter.
# cdc25 = cdc25 inhibition (specificity panel); format: biochemical
# [1] = target: cAMP-dependent protein kinase; assay: PKA inhibition (specificity panel); format: biochemical
# [2] = target: Ca^2+- dependent protein kinase; assay: PKC inhibition (specificity panel); format: biochemical
# CDK4, sequence (P11802 whole entry, species assumed): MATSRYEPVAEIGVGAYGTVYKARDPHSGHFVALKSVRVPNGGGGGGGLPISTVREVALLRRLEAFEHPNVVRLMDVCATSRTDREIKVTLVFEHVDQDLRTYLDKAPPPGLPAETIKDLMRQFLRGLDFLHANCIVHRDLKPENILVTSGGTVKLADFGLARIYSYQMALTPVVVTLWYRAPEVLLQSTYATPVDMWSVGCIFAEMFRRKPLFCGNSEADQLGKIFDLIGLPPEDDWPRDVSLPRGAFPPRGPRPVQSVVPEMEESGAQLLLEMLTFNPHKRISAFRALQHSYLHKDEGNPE
# CDK4, sequence (P24385 whole entry partner, species assumed): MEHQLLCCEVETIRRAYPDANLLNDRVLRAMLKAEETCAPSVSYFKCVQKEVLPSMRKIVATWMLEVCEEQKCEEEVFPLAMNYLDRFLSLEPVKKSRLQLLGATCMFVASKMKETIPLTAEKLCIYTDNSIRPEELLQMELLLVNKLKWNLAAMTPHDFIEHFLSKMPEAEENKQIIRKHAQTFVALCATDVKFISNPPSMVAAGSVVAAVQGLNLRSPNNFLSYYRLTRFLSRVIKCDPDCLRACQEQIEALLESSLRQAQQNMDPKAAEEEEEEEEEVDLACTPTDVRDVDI
Structure (SMILES),IC50 (PKA) [µM],IC50 (p34^cdc2/cyclin B) [µM],IC50 PKA [1],IC50 PKC [2],further results
COC(=O)[C@@]1(Cc2ccc(O)c(CC=C(C)C)c2)OC(=O)C(O)=C1c1ccc(O)cc1 [Butyrolactone-l],260,,,,IC50 CDK4 (CDK4): no effect
"O=C1Nc2ccccc2C1=C1Nc2ccccc2C1=O [Example 1, Indirubine]",,2,no Effect,no Effect,IC50 (cdc25): 150 µM
"O=C1Nc2ccc(I)cc2C1=C1Nc2ccccc2C1=O [Example 2, 5-Iodoindirubine]",,,no Effect,no Effect,
"O=C1Nc2ccccc2C1=C1Nc2ccccc2C1=NO [Example 10, Indirubine-3'-oxime]",,0.18,,,
CN1CC[C@H](c2c(O)cc(O)c3c(=O)cc(-c4ccccc4Cl)oc23)[C@H](O)C1 [Flavopiridol],145,,,,
